According to ChEMBL document CHEMBL5241057, “Outline of gelatinase inhibitors as anti-cancer agents: A patent mini-review for 2010-present” (Eur J Med Chem, 2021):
Blank lines part the entries; values can stand above or below the compound they belong to. Where a SMILES comes first, the peptide text is derived from it. [ ]: non-standard residue; d: D form. The star is where a group is joined. ξ: configuration not given here. Pro(trans-4-F) = O=C(O)[C@@H]1C[C@@H](F)CN1; NMeIle(3ξ) = CCC(C)[C@H](NC)C(=O)O; Dab = NCC[C@H](N)C(=O)O; Hexanoyl = CCCCCC(=O)*; Bz = O=C(c1ccccc1)*; NHOH = ON*

Key:
[1] = target: T1, 72 kDa type IV collagenase (Homo sapiens, UniProt P08253); test: Inhibition of MMP2 (unknown origin)
T1 sequence (P08253 whole entry): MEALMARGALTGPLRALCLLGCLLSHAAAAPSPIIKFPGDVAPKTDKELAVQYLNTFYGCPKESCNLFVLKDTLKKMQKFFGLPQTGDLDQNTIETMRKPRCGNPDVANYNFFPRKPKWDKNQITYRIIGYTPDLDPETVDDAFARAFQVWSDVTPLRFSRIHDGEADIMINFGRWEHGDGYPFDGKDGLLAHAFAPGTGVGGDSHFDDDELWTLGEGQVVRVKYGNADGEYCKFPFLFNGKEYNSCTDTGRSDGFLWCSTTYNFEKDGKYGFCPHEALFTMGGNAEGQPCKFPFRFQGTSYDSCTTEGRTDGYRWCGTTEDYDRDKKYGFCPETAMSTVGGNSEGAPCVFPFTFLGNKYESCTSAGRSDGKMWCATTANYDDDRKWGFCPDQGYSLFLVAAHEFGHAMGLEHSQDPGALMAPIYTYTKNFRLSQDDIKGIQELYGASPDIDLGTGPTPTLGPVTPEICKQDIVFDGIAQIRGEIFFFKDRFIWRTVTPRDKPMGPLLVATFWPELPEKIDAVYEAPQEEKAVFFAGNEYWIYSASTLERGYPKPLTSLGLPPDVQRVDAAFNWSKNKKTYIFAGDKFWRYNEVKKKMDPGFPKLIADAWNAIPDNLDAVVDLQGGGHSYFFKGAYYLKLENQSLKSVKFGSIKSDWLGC

[2] = target: Matrix metalloproteinase-14 (Homo sapiens, UniProt P50281); test: Inhibition of MMP14 (unknown origin)
Matrilysin [3] = target: T2, Matrilysin (Homo sapiens, UniProt P09237); test: Inhibition of MMP7 (unknown origin)
T2 sequence (P09237 whole entry): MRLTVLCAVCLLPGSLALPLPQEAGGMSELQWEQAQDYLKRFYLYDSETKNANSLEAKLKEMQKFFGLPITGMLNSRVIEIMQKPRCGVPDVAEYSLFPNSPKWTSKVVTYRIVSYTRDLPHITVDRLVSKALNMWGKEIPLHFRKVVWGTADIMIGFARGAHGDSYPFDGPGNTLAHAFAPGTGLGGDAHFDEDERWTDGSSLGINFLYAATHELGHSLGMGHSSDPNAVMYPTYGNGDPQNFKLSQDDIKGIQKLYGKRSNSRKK

[4] = target: T3, Matrix metalloproteinase-9 (Homo sapiens, UniProt P14780); test: Inhibition of MMP9 (unknown origin) assessed as inhibition constant
T3 sequence (P14780 whole entry): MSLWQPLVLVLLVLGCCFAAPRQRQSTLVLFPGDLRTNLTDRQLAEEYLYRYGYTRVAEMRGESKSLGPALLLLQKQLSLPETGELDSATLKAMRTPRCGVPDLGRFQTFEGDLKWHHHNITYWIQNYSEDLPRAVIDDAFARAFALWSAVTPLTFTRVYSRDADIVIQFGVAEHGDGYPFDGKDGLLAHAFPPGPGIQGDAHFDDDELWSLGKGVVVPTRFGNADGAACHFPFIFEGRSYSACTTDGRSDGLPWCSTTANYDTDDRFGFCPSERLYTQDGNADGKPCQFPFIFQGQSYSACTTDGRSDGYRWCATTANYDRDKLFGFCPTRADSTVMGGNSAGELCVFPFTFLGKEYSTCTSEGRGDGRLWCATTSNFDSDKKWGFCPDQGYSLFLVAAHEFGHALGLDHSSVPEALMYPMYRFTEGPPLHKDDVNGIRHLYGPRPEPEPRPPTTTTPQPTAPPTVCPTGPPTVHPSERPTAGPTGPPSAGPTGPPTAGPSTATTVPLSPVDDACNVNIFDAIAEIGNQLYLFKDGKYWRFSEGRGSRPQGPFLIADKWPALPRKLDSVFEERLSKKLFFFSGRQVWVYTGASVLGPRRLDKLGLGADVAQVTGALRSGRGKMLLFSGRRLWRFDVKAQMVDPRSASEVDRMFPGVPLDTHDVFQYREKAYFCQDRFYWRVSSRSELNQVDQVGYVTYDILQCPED

Neutrophil collagenase = Neutrophil collagenase (Homo sapiens, UniProt P22894); test: Inhibition of MMP8 (unknown origin)
Neutrophil collagenase, sequence (P22894 whole entry): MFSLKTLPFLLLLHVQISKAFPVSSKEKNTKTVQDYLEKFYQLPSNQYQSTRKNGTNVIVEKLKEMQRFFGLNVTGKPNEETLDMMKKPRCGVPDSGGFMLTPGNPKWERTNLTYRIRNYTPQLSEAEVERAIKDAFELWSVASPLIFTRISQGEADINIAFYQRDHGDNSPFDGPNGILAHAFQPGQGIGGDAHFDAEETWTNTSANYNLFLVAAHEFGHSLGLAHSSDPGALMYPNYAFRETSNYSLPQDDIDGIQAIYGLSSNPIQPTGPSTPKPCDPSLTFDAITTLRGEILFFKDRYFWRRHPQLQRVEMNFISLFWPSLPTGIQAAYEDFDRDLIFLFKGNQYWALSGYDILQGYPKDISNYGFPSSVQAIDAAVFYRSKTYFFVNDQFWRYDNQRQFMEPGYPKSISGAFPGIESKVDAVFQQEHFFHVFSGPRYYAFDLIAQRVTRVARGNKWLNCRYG

[5] = target: Macrophage metalloelastase (Homo sapiens, UniProt P39900); test: Inhibition of MMP12 (unknown origin)
Macrophage metalloelastase, sequence (P39900 whole entry): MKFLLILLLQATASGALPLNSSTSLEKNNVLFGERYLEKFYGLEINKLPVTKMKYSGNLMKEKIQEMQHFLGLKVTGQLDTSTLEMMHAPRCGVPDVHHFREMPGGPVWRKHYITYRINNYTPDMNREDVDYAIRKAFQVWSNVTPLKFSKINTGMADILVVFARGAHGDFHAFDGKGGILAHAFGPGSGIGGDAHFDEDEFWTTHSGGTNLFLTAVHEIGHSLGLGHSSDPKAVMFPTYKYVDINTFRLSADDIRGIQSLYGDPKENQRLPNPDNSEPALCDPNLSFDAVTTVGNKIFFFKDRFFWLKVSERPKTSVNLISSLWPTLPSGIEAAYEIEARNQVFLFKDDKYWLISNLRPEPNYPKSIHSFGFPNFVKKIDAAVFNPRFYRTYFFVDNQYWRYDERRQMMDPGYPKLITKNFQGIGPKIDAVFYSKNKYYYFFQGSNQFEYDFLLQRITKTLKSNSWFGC

[6] = target: T3, Matrix metalloproteinase-9; test: Inhibition of MMP9 (unknown origin)
[7] = target: T1, 72 kDa type IV collagenase; test: Inhibition of MMP2 (unknown origin) assessed as inhibition constant
B16-BL6 [8] = test: Antimetastatic activity in mouse implanted with mouse B16-BL6 cells assessed as inhibition of lung metastasis at 2.5 mg/kg relative to control; assay type: functional; parameters: scale not given: the % may be the effect or the level left
B16-BL6 [9] = test: Antimetastatic activity in mouse implanted with mouse B16-BL6 cells assessed as inhibition of lung metastasis at 7.5 mg/kg relative to control; assay type: functional; parameters: scale not given: the % may be the effect or the level left
B16-BL6 [10] = test: Antimetastatic activity in mouse implanted with mouse B16-BL6 cells assessed as inhibition of lung metastasis at 5 mg/kg relative to control; assay type: functional; parameters: scale not given: the % may be the effect or the level left
Matrilysin [11] = target: T2, Matrilysin; test: Inhibition of MMP7 (unknown origin) assessed as inhibition constant
[12] = target: T3, Matrix metalloproteinase-9; test: Inhibition of MMP9 (unknown origin) assessed as dissociation constant

- IC50 [1]: 3100 nM
- IC50 [2]: 350000 nM
- IC50 (Matrilysin [3]): 320000 nM
SMILES: CC(C)=CCc1cc(/C=C/C(=O)O)cc(CC=C(C)C)c1O [ARTEPILLIN]

- IC50 [1]: 53 nM
SMILES: NS(=O)(=O)c1cc(C(=O)c2ccc3c(-c4ccccc4)c[nH]c3c2)ccc1Cl

- IC50 [1]: < 1 nM
SMILES: CCCCCC(=O)N1C[C@H](F)C[C@H]1C(=O)N(C)[C@H](C(=O)N[C@@H](CCNC(=O)c1ccccc1)C(=O)NO)C(C)CC (stereo partly drawn) (Hexanoyl-[Pro(trans-4-F)]-[NMeIle(3ξ)]-[Dab](Bz)-{NHOH})

SMILES: CS(=O)(=O)Nc1ccc(Oc2ccc(S(=O)(=O)CC3CS3)cc2)cc1 (centres undefined)
- IC50 [4]: 80 nM

- IC50 [1]: 2010 nM
SMILES: Cc1nc2ccccc2n(CC(=O)NN/C=C\c2cccc([N+](=O)[O-])c2)c1=O

- IC50 (Neutrophil collagenase): 0.567 nM
- IC50 [1]: 0.0449 nM
- IC50 [5]: 0.368 nM
- IC50 [6]: 0.34 nM
SMILES: Cc1ccc(-c2cc(-c3ccc(S(=O)(=O)N[C@H](C(=O)O)C(C)C)cc3)no2)s1

SMILES: CN([C@H]1CN(C(N)=O)C[C@@H]1S)S(=O)(=O)c1ccc(Oc2ccccc2)cc1
- IC50 [4]: 1.3 nM
- IC50 [7]: 2.3 nM

- IC50 [1]: 10500 nM
SMILES: Cc1ccc(NCC(=O)[C@@H](Cc2ccccc2)NC(=O)Cn2c(=O)c(C)nc3ccccc32)cc1

SMILES: CC(=O)NCc1ccc(Oc2ccc(S(=O)(=O)CC3CS3)cc2)cc1 (centres undefined)
- IC50 [1]: 234 nM

- IC50 [1]: 6230 nM
- IC50 [6]: 7050 nM
SMILES: C[C@@H]1O[C@@H](O[C@H]2[C@H](O[C@H]3CC[C@@]4(C)C(CC[C@]5(C)C4CC=C4C6CC(C)(C)CC[C@]6(C(=O)O)CC[C@]45C)[C@]3(C)COC(=O)[C@]3(O)C[C@@H](O)[C@@H](O)[C@H](OC(=O)/C=C/c4ccc(O)c(O)c4)C3)OC[C@H](O)[C@@H]2O)[C@H](O)[C@H](O)[C@H]1O (some centres undefined)
- Activity (B16-BL6 [8]): 43.5%
- Activity (B16-BL6 [9]): 75.2%
- Activity (B16-BL6 [10]): 52.9%

- IC50 [1]: 0.22 nM
- IC50 [6]: 1 nM
- Ki (Matrilysin [11]): 116000 nM
SMILES: CN(C)c1ccc(-c2cn(-c3ccc(S(=O)(=O)NC(Cc4ccccc4)C(=O)NO)cc3)nn2)cc1 (centres undefined)

- IC50 [12]: 300 nM
SMILES: O=C(CCCSc1nc(=O)c2ccccc2[nH]1)Nc1nc2ccccc2[nH]1

- IC50 [6]: < 100 nM
SMILES: CC(C)c1noc([C@@H](NC(=O)[C@H](CC2CCCC2)[C@H](O)C(=O)NO)C(C)(C)C)n1

- IC50 [1]: 0.23 nM
SMILES: O=C(NO)C1(S(=O)(=O)c2ccc(-n3cc(-c4ccc(-c5ccncc5)cc4)nn3)cc2)CCOCC1

SMILES: NCc1nc(-c2ccc(Oc3ccc(S(=O)(=O)CC4CS4)cc3)cc2)no1 (centres undefined)
- IC50 [1]: 630 nM

SMILES: COC(=O)Cc1ccc(Oc2ccc(S(=O)(=O)CC3CS3)cc2)cc1 (centres undefined)
- Ki [4]: 180 nM

SMILES: NCc1ccc(Oc2ccc(S(=O)(=O)CC3CS3)cc2)cc1 (centres undefined)
- IC50 [1]: 85 nM

SMILES: NCCCCCC(=O)N1C[C@H](NS(=O)(=O)c2ccc(Oc3ccccc3)cc2)[C@@H](S)C1
- IC50 [4]: 2.3 nM
- IC50 [7]: 2.2 nM

- IC50 [1]: 0.065 nM
- IC50 [5]: 0.566 nM
- IC50 [6]: 0.29 nM
SMILES: CCc1ccc(-c2cc(-c3ccc(S(=O)(=O)N[C@H](C(=O)O)C(C)C)cc3)no2)s1
